Data taken from patent US11147854B2, “Peptides having immunomodulatory properties” (Riptide Bioscience, Inc., priority 2018, dated 2021).

Experiments:
[1] = test system: macrophages from healthy controls; experiment: Viability of peripheral blood derived macrophages from healthy volunteers (PrestoBlue assay); type: cell-based, human; settings: healthy control with low arginase:IFNg ratio of 3.6, peptides 0-100 uM, 96 hours
Procedure: (§1) Peripheral blood derived macrophages were cultured from healthy volunteers and scleroderma patients and cultured in MCS-F for 7 days prior to qPCR for arginasel (M2 marker) or IFNg (M1 marker), followed by treatment with RP peptides at a range of doses 0-100 uM. After 48 hours media were exchanged and cells were retreated with the peptides. After 96 hours cell viability was assayed by PrestoBlue assay. (FIG. 4A) Macrophages from a healthy control with low arginase:IFNg ratio of 3.6, were resistant to the effects of RP peptides of interest (RP182, RP185, RP832C, RP837) on viability.

[2] = test system: macrophages from scleroderma patients; experiment: Viability of peripheral blood derived macrophages from scleroderma patients (PrestoBlue assay); type: cell-based, human; settings: for macrophage viability: scleroderma (SSc) patient with raised arginase:IFNg ratio of 8.8, even at 0.01 uM, 96 hours, PrestoBlue; for effect on scleroderma macrophage samples (high arginase:IFNg) versus healthy control samples (low arginase:IFNg) (FIG. 4A-4B): FIG. 4B versus FIG. 4A; for viability of macrophages (FIG. 3): samples from human scleroderma patients, 96 hours incubation, various concentrations
Procedure: as §1

[3] = test system: CT26 Xenograft; experiment: Mouse tumor inhibition model with and without anti-PD1 antibody (FIG. 2); type: in vivo; settings: peptide 10 mg/kg qd
Procedure: The peptides RP832C and RP185 were administered at 10 mg/kg qd. The anti-PD1 antibody was administered intraperitoneally at 200 ug twice per week.

Sequence | macrophage viability [1] | macrophage viability [2] | tumor volume [3] | effect on scleroderma macrophage samples (high arginase:IFNg) versus healthy control samples (low arginase:IFNg) (FIG. 4A-4B) [2] | viability of macrophages (FIG. 3) [2]
FFKKFFKKFK [RP185] | resistant | greatly reduced viability | reduce tumor volume | – | –
FWKRFVRKWR [RP837] | resistant | greatly reduced viability | – | selective effect | reduce viability
KFRKAFKRFF [RP182] | resistant | greatly reduced viability | – | – | –
RWKFGGFKWR [RP832C] | resistant | greatly reduced viability | reduce tumor volume | selective effect | reduce viability
